According to US20090192095A1 (priority 2008, published 2009):
Several values for one entry are separate records, joined by “and”; a condition that tells them apart may be missing. Equal entries are not always repeated. Structures can show the parent of a compound that is named as a salt. Where two headings read alike, the source gives them in different places.

Legend:
[1] = for Simulated gastric fluid (pH 1.1): % remaining after 2 h/37° C. / Simulated intestinal fluid (pH 6.8): % remaining after 2 h/37° C.: simulated gi fluid
ferret = details: for Total number of individual incidences of: Retching / Total number of individual incidences of: Vomiting: individual ferrets, 150 mg/kg oral, naloxone 0.5 mg/kg s.c. pretreatment, observed 2 hours
[2] = Beagle, dog, in vivo, po, 1 mg/kg
[3] = tested on: gastro-intestinal motility in the rat; experiment: Charcoal propulsion test (gastro-intestinal motility) in the rat; details: oral; for delay of the passage of the charcoal meal (gut motility): 30 mg/kg dose or equimolar dose of prodrug
[4] = tested on: guinea pig small intestine myenteric plexus longitudinal muscle; experiment: tissue or blood; assay type: cell-based; details: for EC50: Cavia porcellus, read-out: EC50 for inhibition of contractility
[5] = tested on: rat colon circular muscle strips; assay type: cell-based; design: unit not given here; details: rat colonic strips, EFS
acetyl choline esterase = acetyl choline esterase (Homo sapiens, UniProt P22303); experiment: In vitro assessment with a human acetyl choline esterase preparation; assay type: biochemical
[6] = tested on: human colon circular muscle strips; assay type: cell-based; details: human colonic strips, EFS
[7] = female, ferret, in vivo, po, 150 mg/kg
[8] = 10 mg/kg, 60 min before charcoal, 30 min after charcoal
[9] = listed as meptazinol valine carbamate

Chain of acetyl choline esterase (P22303 32-614): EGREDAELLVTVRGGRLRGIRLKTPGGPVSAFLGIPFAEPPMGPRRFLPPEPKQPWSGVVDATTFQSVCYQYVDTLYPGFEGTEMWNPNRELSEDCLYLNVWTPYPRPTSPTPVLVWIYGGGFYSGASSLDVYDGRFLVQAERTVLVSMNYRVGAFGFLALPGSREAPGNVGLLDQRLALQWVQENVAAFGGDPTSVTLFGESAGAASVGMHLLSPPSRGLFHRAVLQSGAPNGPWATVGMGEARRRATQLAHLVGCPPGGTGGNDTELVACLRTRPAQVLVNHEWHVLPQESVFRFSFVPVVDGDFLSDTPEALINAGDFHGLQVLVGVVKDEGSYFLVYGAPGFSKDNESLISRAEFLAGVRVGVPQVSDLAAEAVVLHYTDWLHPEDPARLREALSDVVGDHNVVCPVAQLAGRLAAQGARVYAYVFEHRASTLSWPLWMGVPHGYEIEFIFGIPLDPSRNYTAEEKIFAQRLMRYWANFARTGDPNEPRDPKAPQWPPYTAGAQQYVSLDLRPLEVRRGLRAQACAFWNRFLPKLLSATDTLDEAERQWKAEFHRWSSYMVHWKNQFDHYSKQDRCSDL

CC(C)[C@@H](NC(=O)OC1=C2OC3C(=O)CCC4[C@H]5CC(CC1)C2[C@@]34CCN5C)C(=O)O (stereo partly drawn) [Hydromorphone valine carbamate, hydromorphone-(S)-valine carbamate trifluoroacetate]
Distilled water (pH 5.9): % remaining after 2 h/20° C. [1]: 100% | Simulated gastric fluid (pH 1.1): % remaining after 2 h/37° C. [1]: 100% | Simulated intestinal fluid (pH 6.8): % remaining after 2 h/37° C. [1]: 98%

CCC1(c2cccc(O)c2)CCCCN(C)C1 (stereo not drawn) [Meptazinol]
animals that exhibited retching and emesis (ferret; [7]): 50% | episodes of vomiting in animals that responded (ferret; [7]): 1-17 | retches observed in a 2 hour period in animals that responded (ferret; [7]): 5-66 | T½ [2]: 2.8 h

CC(C)C(NC(=O)Oc1ccc2c3c1O[C@H]1C(=O)CC[C@@]4(O)[C@@H](C2)N(C)CC[C@]314)C(=O)O (stereo partly drawn) [Oxymorphone valine carbamate, oxymorphone-(S)-valine carbamate hydrochloride]
% change from vehicle-treated animals, Small intestine ([3]; 10 mg/kg): −4.9% | % change from vehicle-treated animals, Total gut length ([3]; 10 mg/kg): −3.9% | Group mean distance travelled by charcoal as % of (±sd) Small intestine [3, 8]: 68.5 ± 7.85% | Group mean distance travelled by charcoal as % of (±sd) Total gut length [3, 8]: 58.9 ± 6.95% | % change from vehicle-treated animals, Small intestine ([3]; 30 mg/kg): −13.7% | % change from vehicle-treated animals, Total gut length ([3]; 30 mg/kg): −13.1% | delay of the passage of the charcoal meal (gut motility) [3]: 14% | Fold difference [4]: 15.5 | EC50 [4]: 0.2 µM | Distilled water (pH 5.9): % remaining after 2 h/20° C. [1]: 100% | Simulated gastric fluid (pH 1.1): % remaining after 2 h/37° C. [1]: 100% | Simulated intestinal fluid (pH 6.8): % remaining after 2 h/37° C. [1]: 97%

CCC1(c2cccc(OC(=O)N[C@H](C(=O)O)C(C)C)c2)CCCCN(C)C1 (stereo partly drawn) [Meptazinol valine carbamate, meptazinol-(S)-valine carbamate trifluoroacetate]
Mean force of contraction ± sd ([5]; 0.01 μM): 104.47 | Mean force of contraction ± sd ([5]; 0.1 μM): 121.87 | Mean force of contraction ± sd ([5]; 0.5 μM): 86.04 | Mean force of contraction ± sd ([5]; 1.0 μM): 75.22 | Mean force of contraction ± sd ([5]; 10 μM): 65.57 | Mean force of contraction ± sd ([5]; 100 μM): 75.17 | acetyl choline esterase inhibitory action (acetyl choline esterase): loss of acetyl choline esterase inhibitory action | Mean force of contraction ± sd ([6]; 0.01 μM): 89.77 | Mean force of contraction ± sd ([6]; 0.1 μM): 83.63 | Mean force of contraction ± sd ([6]; 0.5 μM): 79.00 | Mean force of contraction ± sd ([6]; 1.0 μM): 80.56 | Mean force of contraction ± sd ([6]; 10 μM): 76.92 | Mean force of contraction ± sd ([6]; 100 μM): 79.25 | animals demonstrating any retching and vomiting (ferret; group of five ferrets, comparable molar dose, 2 hours): only one | Total number of individual incidences of: Retching (ferret): 0 (4×) and 2 | Total number of individual incidences of: Vomiting (ferret): 0 (4×) and 1 | Total number of individual incidences of: Retching (ferret; [9]): 2 | Total number of individual incidences of: Vomiting (ferret; [9]): 1 | Distilled water (pH 5.9): % remaining after 2 h/20° C. [1]: 100% | Simulated gastric fluid (pH 1.1): % remaining after 2 h/37° C. [1]: 100% | Simulated intestinal fluid (pH 6.8): % remaining after 2 h/37° C. [1]: 99%

CN1CC[C@]23c4c5ccc(O)c4O[C@H]2C(=O)CC[C@@]3(O)[C@H]1C5 [Oxymorphone]
% change from vehicle-treated animals, Small intestine ([3]; 1 mg/kg): −5.0% | % change from vehicle-treated animals, Total gut length ([3]; 1 mg/kg): −4.5% | % change from vehicle-treated animals, Small intestine ([3]; 3 mg/kg): −9.5% | % change from vehicle-treated animals, Total gut length ([3]; 3 mg/kg): −9.4% | % change from vehicle-treated animals, Small intestine ([3]; 10 mg/kg): −24.1% | % change from vehicle-treated animals, Total gut length ([3]; 10 mg/kg): −24.1% | % change from vehicle-treated animals, Small intestine ([3]; 30 mg/kg): −69.5% | % change from vehicle-treated animals, Total gut length ([3]; 30 mg/kg): −69.8% | delay of the passage of the charcoal meal (gut motility) [3]: 70% | EC50 [4]: 0.0129 µM | T½ [2]: 2.2 h
